Reference: PubChem BioAssay AID1963853 (Molecular Pharmacology Branch, DTP, NCI, 2024)
pIC50: −log10 of the molar value.

System: 266295-075-R-J1-PDC spheroid viability
Assay: Anticancer human tumor 266295-075-R-J1-PDC patient-derived head and neck squamous carcinoma cell line growth inhibition [POLQ]
Conditions: spheroids with HUVEC and MSC; for pIC50: curve of first compound; for viability, T/C: stronger effect = lower value
Description: Multicellular complex tumor spheroid response to Polymerase (POL) inhibitors (novobiocin, ART-558, RP6685) in combination with a variety of drugs and investigational agents in selected tumor cell lines
The POL inhibitors (novobiocin, ART-558, and RP6685) were evaluated both individually and in combination with standard of care and investigational anticancer small molecules within a complex spheroid model of solid tumors. . Complex spheroids include a stromal component modeled by human endothelial cells (HUVEC) and fibroblasts modeled by human mesenchymal stem cells (MSCs). The concentration ranges selected for each drug and investigational agent were based upon clinically achievable concentrations if the clinical Cmax of the agent was known.
Compounds. The drugs and investigational agents: novobiocin (NSC847541), ART-558 (NSC835418), RP-6685 (NSC848927), peposertib (NSC802822), ceralasertib (NSC780249), elimusertib (NSC800525), camonsertib (NSC841442), AZD-1390 (NSC803789), olaparib (NSC753686), talazoparib (NSC767125), rucaparib (NSC756644), sotorasib (NSC818433), MRTX-1133 (NSC836407), SN-38 (NSC673596), topotecan (NSC609699), epotoside (NSC141540), doxorubicin (NSC123127), gemcitabine (NSC613327), 5-fluorouracil (NSC19893), paclitaxel (NSC125973), vemurafenib (NSC761431), MSA-2 (NSC828583), SN-011 (NSC837082), adavosertib (NSC754352), prexasertib (NSC758257), carboplatin (NSC241240) and oxaliplatin (NSC266046), were obtained from the National Cancer Institute (NCI) Developmental Therapeutics Program Chemical Repository (21). The FDA-approved anticancer drug set is available from the Developmental Therapeutics Program at https://dtp.cancer.gov/organization/dscb/obtaining/. […] The stock solutions were prepared in dimethyl sulfoxide (DMSO, Sigma-Aldrich, St. Louis, MO, cat. D2650), except for the platinum compounds which were prepared in saline (Quality Biological, Gaithersburg, MD, cat. 114-055-101), at 800-fold the tested concentration and stored at -70 degrees C prior to their use. All drugs and investigational agents were tested over a range starting from a high concentration at or near the clinical Cmax and decreasing in half-log increments. If the clinical Cmax for an agent had not been determined, the highest concentration tested was 10 microM, except for SN-38, which was tested at a high concentration of 1 microM.
Cell Culture. All cells were maintained in an incubator at 37 degrees C and 5% CO2 with 95% humidity. The PDC lines were cultured according to standard operating procedures established by the NCI PDMR (https://pdmr.cancer.gov). Table 3 of the manuscript, lists the cell lines along with the number of the three cell types plated to form the mct-spheroids and media for tumor cell growth. After thawing, all PDC lines, except 997537-175-T-J1-PDC and 415267-285-R-J2-PDC, were cultured in Matrigel-coated flasks prepared with a working solution of 1X Ham's F-12 nutrient mix, without supplementation (Thermo Fisher Scientific, cat. 11765054), 100 U/mL penicillin-streptomycin (Thermo Fisher Scientific, cat. 15140122), and 2.5% Matrigel (Corning Inc., Corning, NY, cat. 354248) for the first three passages. The two PDC lines 997537-175-T-J1-PDC and 415267-285-R-J2-PDC were cultured on uncoated flasks. The 857933-349-R-J2-PDC line was cultured in 6C/Colon 1B media containing advanced DMEM/F-12 (Thermo Fisher Scientific, cat. 12634028), 10 mM HEPES (Thermo Fisher Scientific, cat. 15630080), 1X GlutaMAX supplement (Thermo Fisher Scientific, cat. 35050061), 0.1 mg/mL primocin (InvivoGen, San Diego, CA, cat. ant-pm-2), 10% defined fetal bovine serum, heat inactivated (HyClone Laboratories Inc., Logan, UT, cat. SH30070.03HI), 50% L-WRN conditioned media (ATCC, cat. CRL-3276), 1.25 mM N-Acetyl-L-cysteine (Sigma-Aldrich, cat. A9165), 10 mM nicotinamide (Sigma-Aldrich, cat. N0636), 1X B-27 supplement (Thermo Fisher Scientific, cat. 17504044), 1X N-2 supplement (Thermo Fisher Scientific, cat. […]

[1] = second compound 0.0316 µM, first compound 0.00316 µM
[2] = second compound 0.0316 µM, first compound 0.01 µM
[3] = second compound 0.0316 µM, first compound 0.0316 µM
[4] = second compound 0.0316 µM, first compound 0.1 µM
[5] = second compound 0.1 µM, first compound 0.00316 µM
[6] = second compound 0.1 µM, first compound 0.01 µM
[7] = second compound 0.1 µM, first compound 0.0316 µM
[8] = second compound 0.1 µM, first compound 0.1 µM
[9] = second compound 0.316 µM, first compound 0.00316 µM
[10] = second compound 0.316 µM, first compound 0.01 µM
[11] = second compound 0.316 µM, first compound 0.0316 µM
[12] = second compound 0.316 µM, first compound 0.1 µM
[13] = second compound 1 µM, first compound 0.00316 µM
[14] = second compound 1 µM, first compound 0.01 µM
[15] = second compound 1 µM, first compound 0.0316 µM
[16] = second compound 1 µM, first compound 0.1 µM
[17] = second compound 3.16 µM, first compound 0.00316 µM
[18] = second compound 3.16 µM, first compound 0.01 µM
[19] = second compound 3.16 µM, first compound 0.0316 µM
[20] = second compound 3.16 µM, first compound 0.1 µM
[21] = second compound 10 µM, first compound 0.00316 µM
[22] = second compound 10 µM, first compound 0.01 µM
[23] = second compound 10 µM, first compound 0.0316 µM
[24] = second compound 10 µM, first compound 0.1 µM
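Also: spheroids exposed to compounds for seven days before readout.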

`CCc1c2c(nc3ccc(O)cc13)-c1cc3c(c(=O)n1C2)COC(=O)[C@]3(O)CC` + COC1C(OC(N)=O)C(O)C(Oc2ccc3c(O)c(NC(=O)c4ccc(O)c(CC=C(C)C)c4)c(=O)oc3c2C)OC1(C)C showed a pIC50 (second compound 0.0316 µM) of under 6.00, a pIC50 (second compound 0.1 µM) of under 6.00 and a pIC50 (second compound 0.316 µM) of under 6.00. The pIC50 (second compound 1 µM) was under 6.00, the pIC50 (second compound 3.16 µM) was under 6.00 and the pIC50 (second compound 10 µM) was under 6.00. The viability, T/C [1] was 91%, the viability, T/C [2] was 109% and the viability, T/C [3] was 89.8%. The viability, T/C [4] was 105%, the viability, T/C (second compound 0.0316 µM, first compound 0.316 µM) was 96.7% and the viability, T/C (second compound 0.0316 µM, first compound 1 µM) was 70.2%. The viability, T/C [5] was 90.1%, the viability, T/C [6] was 99.2% and the viability, T/C [7] was 86.6%. The viability, T/C [8] was 103%, the viability, T/C (second compound 0.1 µM, first compound 0.316 µM) was 108% and the viability, T/C (second compound 0.1 µM, first compound 1 µM) was 79.3%. For the same compound, the viability, T/C [9] was 99.7%, the viability, T/C [10] was 82.9% and the viability, T/C [11] was 85.6%. For the same compound, the viability, T/C [12] was 109%, the viability, T/C (second compound 0.316 µM, first compound 0.316 µM) was 100% and the viability, T/C (second compound 0.316 µM, first compound 1 µM) was 69.7%. For the same compound, the viability, T/C [13] was 93.5%, the viability, T/C [14] was 79.2% and the viability, T/C [15] was 91.1%. For the same compound, the viability, T/C [16] was 94.5%, the viability, T/C (second compound 1 µM, first compound 0.316 µM) was 99.5% and the viability, T/C (second compound 1 µM, first compound 1 µM) was 69.9%. For the same compound, the viability, T/C [17] was 84.4%, the viability, T/C [18] was 90.6% and the viability, T/C [19] was 97.9%. The viability, T/C [20] was 104%, the viability, T/C (second compound 3.16 µM, first compound 0.316 µM) was 96.8% and the viability, T/C (second compound 3.16 µM, first compound 1 µM) was 65.5%. It also gave a viability, T/C [21] of 89.5%, a viability, T/C [22] of 89% and a viability, T/C [23] of 107%. It also gave a viability, T/C [24] of 112%, a viability, T/C (second compound 10 µM, first compound 0.316 µM) of 106% and a viability, T/C (second compound 10 µM, first compound 1 µM) of 55.4%.

Work on `Cn1ncnc1[C@H]1c2n[nH]c(=O)c3cc(F)cc(c23)N[C@@H]1c1ccc(F)cc1` + COC1C(OC(N)=O)C(O)C(Oc2ccc3c(O)c(NC(=O)c4ccc(O)c(CC=C(C)C)c4)c(=O)oc3c2C)OC1(C)C yielded a pIC50 (second compound 0.0316 µM) of under 7.00, a pIC50 (second compound 0.1 µM) of under 7.00 and a pIC50 (second compound 0.316 µM) of under 7.00. It also gave a pIC50 (second compound 1 µM) of under 7.00, a pIC50 (second compound 3.16 µM) of under 7.00 and a pIC50 (second compound 10 µM) of under 7.00. It also gave a viability, T/C (second compound 0.0316 µM, first compound 0.000316 µM) of 85%, a viability, T/C (second compound 0.0316 µM, first compound 0.001 µM) of 97.4% and a viability, T/C [1] of 93%. The viability, T/C [2] was 99.9%, the viability, T/C [3] was 85.9% and the viability, T/C [4] was 97.1%. For the same compound, the viability, T/C (second compound 0.1 µM, first compound 0.000316 µM) was 97.9%, the viability, T/C (second compound 0.1 µM, first compound 0.001 µM) was 92.7% and the viability, T/C [5] was 70.2%. It also gave a viability, T/C [6] of 98.5%, a viability, T/C [7] of 93.4% and a viability, T/C [8] of 79.9%. The viability, T/C (second compound 0.316 µM, first compound 0.000316 µM) was 106%, the viability, T/C (second compound 0.316 µM, first compound 0.001 µM) was 87.5% and the viability, T/C [9] was 97.6%. For the same compound, the viability, T/C [10] was 103%, the viability, T/C [11] was 86% and the viability, T/C [12] was 83.2%. The viability, T/C (second compound 1 µM, first compound 0.000316 µM) was 97.2%, the viability, T/C (second compound 1 µM, first compound 0.001 µM) was 86.3% and the viability, T/C [13] was 88.6%. It also gave a viability, T/C [14] of 83.7%, a viability, T/C [15] of 93.4% and a viability, T/C [16] of 78.9%. For the same compound, the viability, T/C (second compound 3.16 µM, first compound 0.000316 µM) was 86%, the viability, T/C (second compound 3.16 µM, first compound 0.001 µM) was 106% and the viability, T/C [17] was 87.2%. It also gave a viability, T/C [18] of 84.5%, a viability, T/C [19] of 94.3% and a viability, T/C [20] of 80.5%. The viability, T/C (second compound 10 µM, first compound 0.000316 µM) was 101%, the viability, T/C (second compound 10 µM, first compound 0.001 µM) was 80.8% and the viability, T/C [21] was 86.9%. The viability, T/C [22] was 104%, the viability, T/C [23] was 88.7% and the viability, T/C [24] was 83.2%.
